According to patent US7629294B2, “Pyrazolopyrimidines” (Bayer CropScience LP, priority 2004, dated 2009):

Test: physchem

| SMILES | chromatographic logP (logP) | chromatographic logP (logPs) |
| --- | --- | --- |
| C[C@@H](Nc1c(-c2ccc(F)cc2Cl)c(Cl)nc2c(C(N)=O)cnn12)C(C)(C)C | 3.88 |  |
| C[C@@H](Nc1c(-c2ccc(F)cc2Cl)c(Cl)nc2c(C(=O)NO)cnn12)C(C)(C)C | 3.51 |  |
| C[C@@H](Nc1c(-c2ccc(F)cc2Cl)c(Cl)nc2c(C(N)=NO)cnn12)C(C)(C)C | 2.47 |  |
| CC(C)[C@@H](C)Nc1c(-c2ccc(C#N)cc2Cl)c(Cl)nc2c(C(=O)O)cnn12 (single isomer, unassigned) [Example XIX] | 2.9 |  |
| C[C@H](Nc1c(-c2ccc(C#N)cc2Cl)c(Cl)nc2c(C(=O)O)cnn12)C(F)(F)F (single isomer, unassigned) [Example XXII] | 2.63 |  |
| CC(Nc1c(-c2ccc(F)cc2Cl)c(Cl)nc2c(Br)cnn12)C(C)(C)C (stereo not shown) [3-bromo-5-chloro-6-(2-chloro-4-fluorophenyl)-N-(1,2,2-trimethylpropyl)pyrazolo[1,5-a]pyrimidin-7-amine] | 5.78 |  |
| N#Cc1ccc(Br)c(Cl)c1 [3-chloro-4-bromobenzonitrile] | 2.82 |  |
| Cc1ccsc1-c1c(Cl)nc2c(C(N)=O)cnn2c1NC(C)C(C)C (stereo not drawn) [5-chloro-7-(1,2-dimethylpropylamino)-6-(3-methylthiophen-2-yl)pyrazolo[1,5-α]pyrimidine-3-carboxamide] |  | 3.5 |
| CSc1cnn2c(N3CCC(C)CC3)c(-c3ccc(F)cc3Cl)c(Cl)nc12 [Example I, 5-chloro-6-(2-chloro-4-fluorophenyl)-7-(4-methylpiperidin-1-yl)-3-methylmercapto-pyrazolo [2,3-a]pyrimidine] |  | 5.73 |
| CC1CCN(c2c(-c3ccc(F)cc3Cl)c(Cl)nc3c(S(C)(=O)=O)cnn23)CC1 [Example II, 5-chloro-6-(2-chloro-4-fluorophenyl)-7-(4-methylpiperidin-1-yl)-3-methylsulphonyl-pyrazolo[2,3-a]pyrimidine] |  | 4.2 |
| CC1CCN(c2c(-c3ccc(F)cc3Cl)c(Cl)nc3c(S(=O)(=O)O)cnn23)CC1 [Example III, 5-chloro-6-(2-chloro-4-fluorophenyl)-7-(4-methylpiperidin-1-yl)pyrazolo[2,3-a]pyrimidine-3-sulphonic acid] |  | 2.48 |
| CC(C)NC(=O)c1cnn2c(N[C@H](C)C(C)C)c(-c3c(F)cccc3Cl)c(Cl)nc12 [Example IV, 5-chloro-6-(2-chloro-6-fluorophenyl)-7-{[(1R)-1,2-dimethylpropyl]amino}-N-isopropylpyrazolo[1,5-a]pyrimidine-3-carboxamide] |  | 4.72 |
| C[C@@H](Nc1c(-c2ccc(F)cc2Cl)c(Cl)nc2c(C3=NOCCN3)cnn12)C(C)(C)C [Example IX] | 3.23 |  |
| CC(C)[C@@H](C)Nc1c(-c2c(F)cccc2Cl)c(Cl)nc2c(C(=O)O)cnn12 [Example V, 5-chloro-6-(2-chloro-6-fluorophenyl)-7-{[(1R)-1,2-dimethylpropyl]amino}pyrazolo[1,5-a]pyrimidine-3-carboxylic acid] |  | 3.24 |
| C[C@@H](Nc1c(-c2ccc(F)cc2Cl)c(Cl)nc2c(C3=NOCCO3)cnn12)C(C)(C)C [Example VIII] | 4.43 |  |
| C[C@@H](Nc1c(-c2ccc(F)cc2Cl)c(Cl)nc2c(-c3ncco3)cnn12)C(C)(C)C [Example VII] | 4.72 |  |
| C[C@@H](Nc1c(-c2ccc(F)cc2Cl)c(Cl)nc2c(-c3nsc(=O)o3)cnn12)C(C)(C)C [Example VI] | 5.38 |  |
| CCC(C)c1c(Cl)nc2c(C(=O)O)cnn2c1N[C@@H](C)C(F)(F)F (stereo partly drawn) [Example XII, 5-chloro-6-(sec-butyl)-7-[(S)-3-trifluoroisopropylamino]pyrazolo[1,5-a]pyrimidine-3-carboxylic acid] | 2.88 |  |
| CCC(C)c1c(Cl)nc2c(C(=O)O)cnn2c1N[C@@H](C)C(C)C (stereo partly drawn) [Example XIV, 5-chloro-6-(sec-butyl)-7-[(S)-3-methyl-2-butylamino]pyrazolo[1,5-a]pyrimidine-3-carboxylic acid] | 3.52 |  |
| CC(C)[C@@H](C)Nc1c(C2CCCC2)c(Cl)nc2c(C(=O)O)cnn12 [Example XV, 5-chloro-6-cyclopentyl-7-[(R)-3-methyl-2-butylamino]pyrazolo[1,5-a]pyrimidine-3-carboxylic acid] | 3.7 |  |
| C[C@H](Nc1c(C2CCCC2)c(Cl)nc2c(C(=O)O)cnn12)C(F)(F)F [Example XVII, 5-chloro-6-cyclopentyl-7-[(S)-3-trifluoroisopropylamino]pyrazolo[1,5-a]pyrimidine-3-carboxylic acid] | 3.06 |  |
| CC(C)[C@H](C)Nc1c(C2CCCC2)c(Cl)nc2c(C(=O)O)cnn12 [Example XVI] | 3.7 |  |

Results, then the molecule that gave them:

| chromatographic logP (logP) | chromatographic logP (logPs) | SMILES |
| --- | --- | --- |
| 1.96 |  | CC(C)[C@@H](C)Nc1c(-c2ccc(C(N)=O)cc2Cl)c(Cl)nc2c(C(=O)O)cnn12 (single isomer, unassigned) [Example XX] |
| 3.64 |  | COC(=O)c1cnn2c(N[C@H](C)C(C)C)c(-c3ccc(C#N)cc3Cl)c(Cl)nc12 (single isomer, unassigned) [drawing 52 atropisomer A] |
| 3.72 |  | COC(=O)c1cnn2c(N[C@@H](C)C(C)C)c(-c3ccc(C#N)cc3Cl)c(Cl)nc12 (single isomer, unassigned) [drawing 53 atropisomer A] |
| 3.32 |  | COC(=O)c1cnn2c(N[C@@H](C)C(F)(F)F)c(-c3ccc(C#N)cc3Cl)c(Cl)nc12 (single isomer, unassigned) [drawing 54 atropisomer A] |
|  | 3.57 | CC(C)C(C)Nc1c(-c2ccc(F)cc2Cl)c(Cl)nc2c(-c3nnc(N)s3)cnn12 (stereo not shown) [Example XXIX] |
|  | 3.65 | COc1nc2c(C(=O)O)cnn2c(NC(C)C(C)C)c1-c1sccc1C (stereo not drawn) [Example XXV, 7-(1,2-dimethylpropylamino)-5-methoxy-6-(3-methylthiophen-2-yl)pyrazolo[1,5-α]pyrimidine-3-carboxylic acid] |
|  | 5 | Cc1ccsc1-c1c(Cl)nc2c(-c3nsc(=O)o3)cnn2c1NC(C)C(C)C (stereo not drawn) [Example XXVI, 5-[5-Chloro-7-(1,2-dimethylpropylamino)-6-(3-methylthiophen-2-yl)pyrazolo[1,5-α]pyrimidin-3-yl]-[1,3,4]oxathiazol-2-one] |
|  | 4.3 | Cc1ccsc1-c1c(Cl)nc2c(-c3ncco3)cnn2c1NC(C)C(C)C (stereo not drawn) [Example XXVII, [5-Chloro-6-(3-methylthiophen-2-yl)-3-oxazol-2-ylpyrazolo[1,5-α]pyrimidin-7-yl](1,2-dimethyl-propyl)amine] |
|  | 0.67 | Cc1nnc(-c2cnn3c(O)c(-c4ccc(F)cc4Cl)c(O)nc23)o1 [Example XXX, 6-(2-Chloro-4-fluorophenyl)-3-(5-methyl-[1,3,4]oxadiazol-2-yl)pyrazolo[1,5-a]pyrimidine-5,7-diol] |
|  | 0.51 | Cc1nnc(-c2cnn3c(O)c(-c4ccc(F)cc4Cl)c(O)nc23)[nH]1 [Example XXXI, 6-(2-chloro-4-fluorophenyl)-3-(5-methyl-[1,3,4]triazol-2-yl)pyrazolo[1,5-a]pyrimidine-5,7-diol] |
|  | 0.91 | Oc1nc2c(-c3ccccn3)cnn2c(O)c1-c1ccc(F)cc1Cl [Example XXXII, 6-(2-chloro-4-fluorophenyl)-3-pyridin-2-ylpyrazolo[1,5-a]pyrimidine-5,7-diol] |
|  | 3.94 | Cc1nnc(-c2cnn3c(NC(C)C(C)C)c(-c4ccc(F)cc4Cl)c(Cl)nc23)o1 (stereo not shown) [Example XXXVI] |
|  | 4.09 | CNS(=O)(=O)c1cnn2c(NC(C)C(C)(C)C)c(-c3ccc(F)cc3Cl)c(Cl)nc12 (stereo not shown) [N-methyl-5-chloro-6-(2-chloro-4-fluorophenyl)-7-(1,2,2-trimethylpropylamino)pyrazolo[1,5-a]pyrimidine-3-sulphonamide] |
|  | 3.75 | CC(C)C(C)Nc1c(-c2ccc(F)cc2Cl)c(Cl)nc2c(/C=N/NC(N)=S)cnn12 (stereo not shown) [Thiosemicarbazone of 5-chloro-6-(2-chloro-4-fluorophenyl)-7-(1,2-dimethyl-propylamino)pyrazolo[1,5-a]pyrimidine-3-carbaldehyde] |
|  | 2.91 | Cc1nnc(-c2cnn3c(NC(C)C(C)C)c(-c4ccc(F)cc4Cl)c(Cl)nc23)[nH]1 (stereo not shown) [XXXVII, [5-chloro-6-(2-chloro-4-fluorophenyl)-3-(5-methyl-[1,3,4]triazol-2-yl)pyrazolo[1,5-a]pyrimidin-7-yl](1,2-dimethylpropyl)-amine] |
|  | 3.54 | CC(C)C(C)Nc1c(-c2ccc(F)cc2Cl)c(Cl)nc2c(-c3ccccn3)cnn12 (stereo not shown) [XXXVIII, [5-chloro-6-(2-chloro-4-fluorophenyl)-3-pyridin-2-ylpyrazolo[1,5-a]pyrimidin-7-yl](1,2-dimethylpropyl)amine] |
| 3.54 |  | CC(C)C(C)Nc1c(-c2ccc(F)cc2Cl)c(Cl)nc2c(-c3ccccn3)cnn12 (stereo not shown) [compound 538] |
| 2.34 |  | COC(=O)C(C(=O)OC)c1ccc(C#N)cc1Cl [dimethyl(2-chloro-4-cyanophenyl)malonate] |
| 2.85 |  | COC(=O)c1cnn2c(Cl)c(-c3ccc(C#N)cc3Cl)c(Cl)nc12 [methyl 5,7-dichloro-6-(2-chloro-4-cyanophenyl)pyrazolo[1,5-a]pyrimidine-3-carboxylate] |
| 3.13 |  | CCC(C)c1c(Cl)nc2c(C(=O)OC)cnn2c1Cl (stereo not shown) [methyl 5,7-dichloro-6-(sec-butyl)-pyrazolo[1,5-a]pyrimidine-3-carboxylate] |
| 3.31 |  | COC(=O)c1cnn2c(Cl)c(C3CCCC3)c(Cl)nc12 [methyl 5,7-dichloro-6-cyclopentylpyrazolo[1,5-a]pyrimidine-3-carboxylate] |
|  | 4.12 | COC(=O)c1cnn2c(N[C@H](C)C(C)C)c(-c3c(F)cccc3Cl)c(Cl)nc12 [methyl 5-chloro-6-(2-chloro-6-fluorophenyl)-7-{[(1R)-1,2-dimethylpropyl]amino}pyrazolo[1,5-a]pyrimidine-3-carboxylate] |
| 4.49 |  | CCC(C)c1c(Cl)nc2c(C(=O)OC)cnn2c1N[C@H](C)C(C)C (stereo partly drawn) [methyl 5-chloro-6-(sec-butyl)-7-[(R)-3-methyl-2-butylamino][1,5-a]pyrimidine-3-carboxylate] |
| 4.49 |  | CCC(C)c1c(Cl)nc2c(C(=O)OC)cnn2c1N[C@@H](C)C(C)C (stereo partly drawn) [methyl 5-chloro-6-(sec-butyl)-7-[(S)-3-methyl-2-butylamino]pyrazolo[1,5-a]pyrimidine-3-carboxylate] |
